Where “and” joins values, the source holds several entries; their conditions need not be identical. Equal values may be shown once.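 Following 48 hours of exposure in 96-well plates, responses at five concentrations were used to interpolate endpoints linearly. Abbreviation: GI50, concentration required for 50% inhibition of growth.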 Calls of active or inactive are those of the source. Rule as the data show it: active = GI50 up to about 1.1 µM and inactive = higher.

Common to all, as to test: NCI anticancer screen, dose series, 48 h
Test [1] concerns BT-549.
Test [2] concerns DMS-273.
The test system of test [3] is M19-MEL.
In test [4] the test system is DLD-1.
Test [5] deals with KM-20L2.
Test [6] concerns SNB-78.
The subject of test [7] is HOP-18.
Test [8] deals with LXFL 529.
The subject of test [9] is RXF 631.

Take `COc1ccc(N2NC(c3ccccc3)(c3ccccc3)C(C)C2=O)cc1` (stereo not given): the GI50 in [1] is > 100 µM (inactive).

In the case of `CN1C(=O)c2ccccc2NC(=O)c2cnn(C)c21`, the GI50 in [2], in test [3], in test [4], in test [5], in [6] and in test [7] was > 100 µM (inactive) throughout.

Take `C/C(CCOC1CCCCO1)=C(\C)[Si](C)(C)C` (stereo not given): the GI50 in test [3], in test [8], in test [4], in [5] and in test [6] was > 100 µM (inactive) throughout.

On to `O=C(Nc1nnc(S)[nH]1)C(=O)C(c1cnc2ccc([N+](=O)[O-])cc2n1)[N+](=O)[O-]` (stereo not given), for which the GI50 is > 100 µM (inactive) in [3]; > 100 µM (inactive) in test [8]; > 100 µM (inactive) in [4]; 81.3 µM (inactive) in test [5]; > 100 µM (inactive) in test [6]; > 100 µM (inactive) in [9]. Moreover, in test [7], the GI50 is > 100 µM (inactive).

With `c1cc(CNC2C3CCC(C3)C2c2c[nH]c3ccccc23)cc(CNC2C3CCC(C3)C2c2c[nH]c3ccccc23)c1` (stereo not given), in test [1], the GI50 was 1.73 µM (inactive) and 1.75 µM (inactive).

In the case of `Oc1ccc(Br)cc1/C=N/C1CCCCC1`, the GI50 in [1] is 35.3 µM (inactive).

In the case of `CN(C)CCNc1ccc(NCC[N+](C)(C)Cc2ccc([N+](=O)[O-])cc2)c2c1C(=O)c1ccccc1C2=O`, in [1], the GI50 was > 25 µM (inactive).

In the case of `C=CCCCC12CCCc3cccc(c31)NC2=O` (stereo not given), the results for the GI50 in [4], in test [5] and in test [9] were 19.6 µM (inactive), 21.2 µM (inactive) and 20.6 µM (inactive), respectively.

Turning to `COc1ccc(-n2cnnc2-c2nsc3ccccc23)cc1`, the GI50 in test [2] was 44.7 µM (inactive); in test [3], > 100 µM (inactive); in test [8] it was > 100 µM (inactive); in test [5] it was > 100 µM (inactive); in test [6], > 100 µM (inactive); in test [7] it was 36.6 µM (inactive).

With `OC(NN=C1CCCC1)(C(F)(F)Cl)C(F)(F)Cl`, the GI50 in [1] is > 10 µM (inactive).

As for `CCOC(=O)N1CCC(=O)C(CNC23CC4CC(CC(C4)C2)C3)C1` (stereo not given), the GI50 in test [2] was 25.2 µM (inactive); in test [3], 20.4 µM (inactive); in [8], 18.3 µM (inactive); in [4], 21.1 µM (inactive); in test [5], > 100 µM (inactive); in test [6] it was > 10 µM (inactive). Besides, the GI50 in test [9] was > 100 µM (inactive).

Take `CCCCCCCCCCNC(=O)CCC(NC(=O)c1ccc(N(C)Cc2cnc3nc(N)nc(N)c3n2)cc1)C(=O)NCCCCCCCCCC` (stereo not given): the GI50 in [1] is 9.27 µM (inactive).

Consider `O=c1[nH]c(=S)[nH]c2c(C3OC(CO)C(O)C3O)nsc12` (stereo not given), for which the GI50 in test [1] was > 100 µM (inactive).

In the case of `COc1ccc(C2=Nn3c(nnc(Cc4ccc(Cl)cc4)c3=O)SC2)cc1`, in test [1], the GI50 is 41.8 µM (inactive).

As for `CCN(CC)CCn1c(=O)c2c(C)c3oc4ccccc4oc3c(C)c2c1=O`, the GI50 in [1] was > 100 µM (inactive).

Consider `CN(C)C(=S)N/N=C(\C(=N/NC(=S)N(C)C)c1ccccn1)c1ccccn1`, for which, in test [1], the GI50 is 14.6 µM (inactive).

Consider `O=C(O)CSc1nnc(-c2ccc(O)cc2)[nH]1`, for which the GI50 in [2], in test [3], in [4], in test [5], in test [6] and in test [9] was > 100 µM (inactive) in each case. In addition, in [7], the GI50 was > 100 µM (inactive).

Regarding `CCOc1ccc(/N=N/S(=O)(=O)O)cc1`, the GI50 in [1] was > 100 µM (inactive).

Consider `CC(=O)OC(/C=C1/C=CC(=O)O1)COC(=O)c1ccccc1` (stereo not given) [ACETYLMELODORINOL], for which the GI50 in test [2], in test [3], in [8], in test [4], in test [5] and in test [6] was > 31.2 µM (inactive) in each case. In addition, the GI50 in test [7] was > 31.2 µM (inactive).

`COC1=CC(=O)c2c(c(O)c3oc4cc(OC)cc(C)c4c(=O)c3c2O)C1=O` [BIKAVERIN]: the GI50 is 0.759 µM (active) in test [2]; 0.908 µM (active) in [3]; 1.8 µM (inactive) in [4]; 5.94 µM (inactive) in test [5]; 3.41 µM (inactive) in test [6]; 0.906 µM (active) in [7].

The values are drawn from ChEMBL document CHEMBL1201862, “PubChem BioAssay data set” (2004).
